Test results published in the NIST ThermoML archive (doi:10.1021/je8004408).
± gives the expanded uncertainty stated by the source.

How the values were obtained:
[1] = molar enthalpy of vaporization or sublimation; settings: 298.15 K, Drop Microcalorimetry
[2] = Molar enthalpy of transition or fusion; settings: DSC
[3] = DTA

Row | molar enthalpy ([1]; Crystal) | Molar enthalpy of transition or fusion ([2]; Crystal) | Normal melting temperature ([3]; Crystal) | molar enthalpy ([1]; Crystal 2) | Molar enthalpy of transition or fusion ([2]; Crystal 1) | Molar enthalpy of transition or fusion ([2]; Crystal 2) | Normal melting temperature ([3]; Crystal 1) | Triple point temperature ([3]; Crystal 2) | Structure (SMILES)
1 | 28.3 ± 0.717 kcal/mol | 8.05 ± 0.198 kcal/mol | 206.91 ± 0.39 °C |  |  |  |  |  | O=C1CCCc2c(O)cccc21 [5-hydroxy-1-tetralone]
2 |  |  |  | 28.1 ± 0.669 kcal/mol | 4.54 ± 0.17 kcal/mol | 3.11 ± 0.598 kcal/mol | 152.76 ± 0.45 °C | 387.46 ± 0.65 K | O=C1CCCc2cc(O)ccc21 [6-hydroxy-1-tetralone]
